Laboratory results published in PubChem BioAssay (NCI).
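Method: 48-hour compound exposure of cells in 96-well plates, five concentrations, linear interpolation of endpoints. Here, GI50 denotes the concentration required for 50% inhibition of growth. At the TGI there is no net growth.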

Tests used:
Assay in all cases: inhibition of tumour cell growth, NCI panel, 48 h
UACC-62 melanoma = test system: UACC-62 melanoma
UACC-257 melanoma = test system: UACC-257 melanoma
NCI-H522 lung = test system: NCI-H522 lung
A498 renal = test system: A498 renal
HCT-116 colon = test system: HCT-116 colon
NCI-H23 lung = test system: NCI-H23 lung
KM12 colon = test system: KM12 colon
M14 melanoma = test system: M14 melanoma
SK-MEL-2 melanoma = test system: SK-MEL-2 melanoma
TK-10 renal = test system: TK-10 renal

Structure (SMILES)	TGI (UACC-62 melanoma) [µM]	TGI (UACC-257 melanoma) [µM]	TGI (NCI-H522 lung) [µM]	TGI (A498 renal) [µM]	TGI (HCT-116 colon) [µM]	TGI (NCI-H23 lung) [µM]	TGI (KM12 colon) [µM]	TGI (M14 melanoma) [µM]	TGI (SK-MEL-2 melanoma) [µM]	TGI (TK-10 renal) [µM]	GI50 (UACC-62 melanoma) [µM]	GI50 (KM12 colon) [µM]	GI50 (UACC-257 melanoma) [µM]	GI50 (NCI-H522 lung) [nM]	GI50 (A498 renal) [µM]	GI50 (NCI-H23 lung) [µM]	GI50 (SK-MEL-2 melanoma) [µM]	GI50 (TK-10 renal) [nM]	GI50 (HCT-116 colon) [nM]
C=C1CC(OC)(C(O)C(=O)N[C@H]2OCO[C@H]3C2O[C@H](C[C@H](O)COC)C(C)(C)C3OC)O[C@H](C)[C@@H]1C (stereo partly specified)	> 0.00772	> 0.00772	> 0.00772	> 0.00772	> 0.00772	> 0.00772													
CC(=O)Nc1ccc(/C=C(\NC(=O)c2ccccc2)C(=O)NNS(=O)(=O)c2ccc(C)cc2)cc1	> 100	> 100	> 100		> 100	> 100	> 100	> 100	> 100	> 100									
CCOC(=O)C[n+]1ccc2c([nH]c3cc(OC)ccc32)c1C	> 100	> 100	> 100	> 100	> 100	> 100	> 100		> 100										
COc1ccc(C2=NNC(=O)c3ccccc3N2c2nc(-c3cccs3)nc3ccc(Br)cc23)cc1	> 100	> 100	> 100	> 100	> 100	> 100	> 100	> 100	> 100	72.8									
COc1ccc(N2C(=O)C(N3C(=O)C=CC3=O)C2C=O)cc1 (stereo unspecified)	> 100	> 100	> 100	> 100	> 100	> 100	> 100	> 100	> 100	> 100									
Cc1ccc2cnc(N)c(C#Cc3cncc(C(=O)Nc4ccc(CN5CCN(C)CC5)c(C(F)(F)F)c4)c3)c2c1	1.35	1.38	1.02	1.01		1.25	0.538		1.63	1.29	0.628	0.005	0.605	249	0.291	0.492	0.66	642	
O=C1OC2C=CC1C1(CCOC1=O)C2 (stereo unspecified)	94.6	> 100	> 100	> 100	> 100	> 100	> 100	> 100	> 100	> 100									
CCCCCCCCCCCCCCCCNc1ccn(C2CC(OP(=O)(O)OCC3OC(n4cc(CC)c(=O)[nH]c4=O)CC3O)C(CO)O2)c(=O)n1 (stereo unspecified)	35.8	97.4	> 100	> 100	> 100	> 100	29.6	33.2	39.1	> 100									
CC(=O)[C@H]1CCC2[C@@H]3CC=C4C(O)C(OS(=O)(=O)O)CC[C@]4(C)C3CC[C@@]21C (stereo partly specified)	> 100	> 100	> 100	> 100	> 100	> 100	> 100		> 100										
CN(CCN(C)C(=O)CCn1ccc(=O)[nH]c1=O)C(=O)CCn1ccc(=O)[nH]c1=O	> 100		> 100		> 100	> 100	> 100	> 100	> 100	> 100									
CC1OC=CC(=O)C1O (stereo unspecified)	> 100	> 100	> 100			> 100	> 100	> 100	> 100	> 100									
CCOC(=O)c1cn(C)nc1N/C(C)=C\C(=O)c1ccccc1	> 100	> 100	> 100			> 100	> 100	> 100		> 100									
NC1CCCCC1N.O=S(=O)([O-])CCCN1CCN(CCO)CC1.O=S(=O)([O-])CCCN1CCN(CCO)CC1.[Pt+4]	33.7	24	17.9	> 100	> 100	> 100	> 100		23.4		6.91	13.2	5.77	2730	6.05	7.36	13.1		2000
COc1cccc(C2CC(=O)c3cccn32)c1 (stereo unspecified)	> 100	> 100	> 100	> 100	> 100	> 100	> 100	> 100	> 100	> 100									
O=C(NCCCCNCCCNC(=O)OCc1ccccc1)OCc1ccccc1	37.1	41.3	39.2	36.8	70	> 100	98.5	40.1	59.8	> 100									
CC(=O)O[C@H]1C(=O)[C@@]2(C)C(C(OC(=O)c3ccccc3)[C@]3(O)CC(OC(=O)C(O)C(NC(=O)c4ccccc4)c4ccc(C)cc4)C(C)=C1C3(C)C)[C@]1(OC(C)=O)CO[C@@H]1C[C@@H]2O (stereo partly specified)	6.51	> 25	0.0396	> 25	4.75	21.8	9.9	0.105	0.121	> 25									
